Measurements taken from patent US20260217701A1, “SELECTIVE BET INHIBITORS AND USES THEREOF” (Tay Therapeutics Limited, priority 2022, published 2026).
Values joined by “and” are separate entries in the source; they are usually repeats but may differ in a detail not shown here. Equal values may be shown once.

Tests used:
[1] = UUO study: serum urea levels; type: in vivo; conditions: UUO rats
Excerpt: Tables 30A-30B and FIG. 27A depict serum urea levels in sham rats (black bar), UUO rats treated with vehicle (grey bar), and UUO rats treated with Compound A (white bar).

[2] = tested on: idiopathic pulmonary fibrosis (bleomycin); assay: Bleomycin IPF model: oxygen saturation (pulse oximetry); type: in vivo, C57BI/6J mice; conditions: for Oxygen saturation levels: Bleo mice
Procedure: Male C57BI/6J mice, aged 12 weeks with an approximate weight of 25-30 g were obtained from Jackson Laboratories (Bar Harbor, ME). Animals were acclimated for two weeks prior to study initiation, and were randomized into the experimental groups outlined in Table 32.
Intratracheal (IT) administration of Bleo or PBS control was conducted at the start of the study (Day 0). […] Animals were weighed on Day 0, and indexed boluses of PBS control (Group 1) or Bleo (Groups 2-6) were delivered by IT administration.
Following administration of Bleo, animals (n=10/group) were included in the study if they met the following guidelines on Day 7: (1) a predictable 5% loss in body weight, and (2) the presence of fibrotic pulmonary lesions, detected by micro-CT imaging. 10 animals from Group 1 additionally proceeded as controls. Animals that continued in the study on Day 7 received an oral gavage (OG) administration of PBS, Compound A (1 mg/kg, 3 mg/kg, 10 mg/kg), or Pirfenidone (300 mg/kg), as outlined in Table 31 in 25 μL boluses every other day (QOD), starting on Day 7. Compound A was formulated in 5% (v/v) DMSO/15% (v/v) PEG 400/80% (v/v) E-TPGS in purified water.
Body weights were obtained at Day 0 at the start of the study, and again at Day 7 to determine if an animal continued in the study. Body weight was measured daily from Day 7 until Day 21, and oxygen saturation was measured by a pulse oximetry (MouseOx) system QOD from Day 7 until study completion on Day 21, and results were plotted and analyzed by Kaplan-Meier plots.

Cn1cc(-c2ccccc2)c(-c2cn(C)c(=O)c3[nH]c(-c4cnn(C(F)(F)F)c4)cc23)cc1=O [Compound A, 6-methyl-4-(1-methyl-2-oxo-5-phenyl-1,2-dihydropyridin-4-yl)-2-(1-(trifluoromethyl)-1H-pyrazol-4-yl)-1,6-dihydro-7H-pyrrolo[2,3-c]pyridin-7-one]
Serum urea levels, difference between experimental groups ([1]; 10 mg/kg): No significant differences
Serum Urea (Mean + S.D.) ([1]; 10 mg/kg QD): 5.67 ± 0.71 mmol/L
Serum Urea ([1]; Compound A 10 mg/kg QD, individual animals, 10 mg/kg): 5.72 mmol/L and 5.03 mmol/L and 5.64 mmol/L and 6.28 mmol/L and 5.22 mmol/L and 4.77 mmol/L and 6.97 mmol/L and 5.71 mmol/L
Recovery in oxygen saturation relative to IPF control group (Bleo+Saline) ([2]; 3 mg/kg and 10 mg/kg): significant recovery in oxygen saturation levels
Mean Oxygen Saturation ([2]; Bleo + Compound A (1 mg/kg) OG QOD from D7, Day 7): 80.6
Mean Oxygen Saturation ([2]; Bleo + Compound A (1 mg/kg) OG QOD from D7, Day 9): 84.25
Mean Oxygen Saturation ([2]; Bleo + Compound A (1 mg/kg) OG QOD from D7, Day 11): 87.17
Mean Oxygen Saturation ([2]; Bleo + Compound A (1 mg/kg) OG QOD from D7, Day 13): 88.03
Mean Oxygen Saturation ([2]; Bleo + Compound A (1 mg/kg) OG QOD from D7, Day 15): 88.58
Mean Oxygen Saturation ([2]; Bleo + Compound A (1 mg/kg) OG QOD from D7, Day 17): 88.48
Mean Oxygen Saturation ([2]; Bleo + Compound A (1 mg/kg) OG QOD from D7, Day 19): 89.87
Mean Oxygen Saturation ([2]; Bleo + Compound A (1 mg/kg) OG QOD from D7, Day 21): 87.67
Mean Oxygen Saturation ([2]; Bleo + Compound A (3 mg/kg) OG QOD from D7, Day 7): 82.08
Mean Oxygen Saturation ([2]; Bleo + Compound A (3 mg/kg) OG QOD from D7, Day 9): 83.77
Mean Oxygen Saturation ([2]; Bleo + Compound A (3 mg/kg) OG QOD from D7, Day 11): 85.05
Mean Oxygen Saturation ([2]; Bleo + Compound A (3 mg/kg) OG QOD from D7, Day 13): 85.67
Mean Oxygen Saturation ([2]; Bleo + Compound A (3 mg/kg) OG QOD from D7, Day 15): 85.97
Mean Oxygen Saturation ([2]; Bleo + Compound A (3 mg/kg) OG QOD from D7, Day 17): 89.18
Mean Oxygen Saturation ([2]; Bleo + Compound A (3 mg/kg) OG QOD from D7, Day 19): 89.6
Mean Oxygen Saturation ([2]; Bleo + Compound A (3 mg/kg) OG QOD from D7, Day 21): 89.88
Mean Oxygen Saturation ([2]; Bleo + Compound A (10 mg/kg) OG QOD from D7, Day 7): 82.75
Mean Oxygen Saturation ([2]; Bleo + Compound A (10 mg/kg) OG QOD from D7, Day 9): 84.07
Mean Oxygen Saturation ([2]; Bleo + Compound A (10 mg/kg) OG QOD from D7, Day 11): 86.87
Mean Oxygen Saturation ([2]; Bleo + Compound A (10 mg/kg) OG QOD from D7, Day 13): 87.5
Mean Oxygen Saturation ([2]; Bleo + Compound A (10 mg/kg) OG QOD from D7, Day 15): 88.87
Mean Oxygen Saturation ([2]; Bleo + Compound A (10 mg/kg) OG QOD from D7, Day 17): 89.23
Mean Oxygen Saturation ([2]; Bleo + Compound A (10 mg/kg) OG QOD from D7, Day 19): 92.22
Mean Oxygen Saturation ([2]; Bleo + Compound A (10 mg/kg) OG QOD from D7, Day 21): 93.58
Oxygen saturation levels ([2]; 3 mg/kg, Day 21): about 90%
Oxygen saturation levels ([2]; 10 mg/kg, Day 21): about 93.6%
Improvement of oxygen saturation versus pirfenidone ([2]; IPF model): superior to pirfenidone in improving oxygen saturation
